Data published in the CombiSolv-Exp solvation set (Vermeire and Green 2021).

Assay: solvent given as SMILES

CC(=O)c1ccccc1
Settings	solvation free energy, 298 K [kcal/mol]
in CCCCCC	-6.05
in CCCCCCCCCCCCCCCC	-6.04
in O	-4.58

Cc1ccc(O)cc1C
Settings	solvation free energy, 298 K [kcal/mol]
in CCCCCC	-6.89
in CCCCCCC	-6.89
in CCCCCCCC	-6.85
in O	-6.51

Nc1cccc(Cl)c1
Settings	solvation free energy, 298 K [kcal/mol]
in O	-5.9

CC(C)C(=O)CC(=O)C(C)C
Settings	solvation free energy, 298 K [kcal/mol]
in O	-4.08

CCOCC
Settings	solvation free energy, 298 K [kcal/mol]
in C1CCOC1	-3.51
in C=CCCCCCCCCCCCCCC	-2.74
in CC(=O)N(C)C	-2.81
in CC(C)=O	-3.25
in CCCCCCCC	-3.05
in CCCCCCCCCCCCCCCC	-2.79
in CCCCCCCCCCO	-2.93
in CCCCCCCCO	-2.99
in CCCCCO	-3.12
in CCCCCl	-3.4
in CCCCN(C=O)CCCC	-2.88
in CCCCO	-3.1
in CCCCOCCCC	-3.23
in CCN1CCCC1=O	-2.77
in CCN(CC)C(C)=O	-2.95
in CCNC(C)=O	-2.82
in CCNC=O	-2.78
in CCO	-3.26
in CCOC(C)(C)C	-3.23
in CN1CCCC1=O	-2.77
in CN1CCCCC1=O	-2.77
in CN(C)C=O	-2.81
in CNC(C)=O	-2.77
in CNC=O	-2.66
in CO	-3.26
in CS(C)=O	-2.2
in Cc1cccc(C)c1	-3.29
in ClC(Cl)(Cl)Cl	-3.52
in ClCCCl	-3.44
in ClCCl	-3.92
in NC=O	-1.93
in O	-1.74
in [2H]O[2H]	-1.96

C=COC(C)=O
Settings	solvation free energy, 298 K [kcal/mol]
in CC(C)=O	-4.46
in CCN(CC)C(C)=O	-4.2
in CCNC(C)=O	-3.83
in CCNC=O	-3.92
in CN1CCCC1=O	-4.16
in O	-2.67
in O=CN1CCOCC1	-3.98

c1cc2cccc3c4cccc5cccc(c(c1)c23)c54
Settings	solvation free energy, 298 K [kcal/mol]
in CCCCCCCCC=CCCCCCCCC(=O)OCC(COC(=O)CCCCCCCC=CCCCCCCCC)OC(=O)CCCCCCCC=CCCCCCCCC	-16.9
in O	-7.83

Cc1ccc(C)c(O)c1
Settings	solvation free energy, 298 K [kcal/mol]
in CCCCCC	-6.46
in CCCCCCC	-6.44
in CCCCCCCC	-6.44
in Cc1ccc(C)cc1	-7.72
in Cc1cccc(C)c1	-7.76
in Cc1ccccc1C	-7.8
in O	-5.92

FC(Cl)C(F)(F)F (stereo not given)
Settings	solvation free energy, 298 K [kcal/mol]
in CCCCCCCCO	-1.67
in CN1CCCC1=O	-2.39
in CN(C)C=O	-2.44
in O	0.79

CN(C)C(=O)c1ccc([N+](=O)[O-])cc1
Settings	solvation free energy, 298 K [kcal/mol]
in O	-11.9

CCOC(=O)c1ccccc1O
Settings	solvation free energy, 298 K [kcal/mol]
in O	-3.82

O=C(O)c1ccc(I)cc1
Settings	solvation free energy, 298 K [kcal/mol]
in CN(C)C=O	-14
in O	-7.96

O=[N+]([O-])c1ccc(Cl)c(Cl)c1
Settings	solvation free energy, 298 K [kcal/mol]
in C1CCCCC1	-8.7
in CC(C)O	-8.04
in CCCCCC	-7.78
in CCCCCCC	-7.65
in CCCCCCCCC=CCCCCCCCC(=O)OCC(COC(=O)CCCCCCCC=CCCCCCCCC)OC(=O)CCCCCCCC=CCCCCCCCC	-7.34
in CCCCO	-8.08
in CCCO	-8.26
in CCO	-8.24
in CCOC(C)=O	-9.16
in CO	-8.41
in ClC(Cl)(Cl)Cl	-9.07

CC(=O)C(C)C
Settings	solvation free energy, 298 K [kcal/mol]
in CCCCCCCCCCCCCCCC	-3.52
in CCCCCCCCO	-4.15
in O	-3.24
in [2H]O[2H]	-3.22

COc1ccc(C(=O)O)cc1
Settings	solvation free energy, 298 K [kcal/mol]
in C1CCOC1	-12.7
in C1COCCO1	-12.4
in CC(C)CCO	-11.5
in CC(C)CO	-11.5
in CC(C)O	-11.8
in CC(C)OC(C)C	-10.8
in CC(C)OCCO	-12.3
in CC(O)COC(C)(C)C	-11.9
in CCC(C)O	-11.7
in CCCC(C)O	-11.6
in CCCCCCCCCCO	-11.4
in CCCCCCCCO	-11.5
in CCCCCCCO	-11.5
in CCCCCCO	-11.6
in CCCCCO	-11.6
in CCCCO	-11.7
in CCCCOC(C)=O	-11.5
in CCCCOCCO	-12.2
in CCCO	-11.8
in CCCOCCO	-12.2
in CCO	-12
in CCOC(C)=O	-11.8
in CCOCC	-11.5
in CCOCCO	-12.4
in COC(C)CCO	-12.3
in O	-9.14

COC(=O)C1CC1
Settings	solvation free energy, 298 K [kcal/mol]
in O	-4.1

C=C1CC2CCC1C2(C)C (stereo not given)
Settings	solvation free energy, 298 K [kcal/mol]
in O	0.52

COc1ccc(C(c2ccc(OC)cc2)C(Cl)(Cl)Cl)cc1
Settings	solvation free energy, 298 K [kcal/mol]
in O	-6.93

CC(C)OC=O
Settings	solvation free energy, 298 K [kcal/mol]
in O	-2.02

CCCCSP(=O)(O)SCCCC
Settings	solvation free energy, 298 K [kcal/mol]
in O	-8.03

CC(Cl)(Cl)Cl
Settings	solvation free energy, 298 K [kcal/mol]
in C1CCOC1	-4.35
in CC(=O)CC(C)C	-4.28
in CC(C)=O	-4.23
in CC(C)O	-3.56
in CCCCCCCCCCCCCC	-3.61
in CCCCCCCCCCCCCCCC	-3.67
in CCCCCCCCN(CCCCCCCC)CCCCCCCC	-3.63
in CCCCCCCCO	-3.67
in CCCCCN(CCCCC)CCCCC	-3.78
in CCCCCl	-4.32
in CCCCN(CCCC)CCCC	-3.69
in CCCCOCCCC	-4.08
in CCCO	-3.94
in CCOCC	-4.13
in ClC(Cl)(Cl)Cl	-4.24
in ClC(Cl)Cl	-4.42
in ClCCCl	-4.24
in [2H]O[2H]	-0.57

ClCCCCl
Settings	solvation free energy, 298 K [kcal/mol]
in CC(C)=O	-5.63
in CCCCCC	-4.43
in ClC(Cl)(Cl)Cl	-5.2
in O	-1.89

C1=CCC=C1
Settings	solvation free energy, 298 K [kcal/mol]
in Brc1cccc2ccccc12	-2.84
in CC(=O)OCc1ccccc1	-2.92
in CN1CCCC1=O	-3.33
in CN(C)C=O	-3.41
in O	-0.22
in c1ccc2ncccc2c1	-2.88
